Laboratory results from patent US20040127529A1, “Remedies for skin ulcer” (Fujisawa Pharmaceutical Co., Ltd., priority 1999, published 2004).

Test system: full-thickness wound in C57BL/KsJ db/db mice
Assay: db/db mouse full-thickness wound model
Type: in vivo
Details: for wound area reduction: 100 μl applied once daily for 18 days, day 18 following wound construction (vehicle 73%); for day from which wound area differs significantly (p<0.05) from the vehicle control group: once daily
Description: Test Example 1 (db/db mouse full-thickness wound model)
Using 10-week-old male C57BL/KsJ db/db mice (db/db mice) and the corresponding control C57BL/KsJ +m/+m mice (+m/+m mice), the back hair coat was removed with a depilatory cream. After 3 days, using ophthalmological scissors, the skin in a circular area with a diameter of about 1.5 cm at the dorsal midline was removed to construct a full-thickness wound. Thereafter, the full-thickness wound area was covered with a poly-urethane film agent. During 18 consecutive days beginning the day of wound construction, 100 μl of the investigational compound solution or distilled water (vehicle) was taken in a syringe and applied through the polyurethane film once daily. The polyurethane film agent was changed every day and after disinfection with 3% H2O2, the drug was applied in the same manner as above. The wound area was measured by the tracing method under light anesthesia every other day as a rule. With the initial wound area at the beginning of drug application being taken as 100%, the fractional area at each day of measurement was calculated.

## O=C(O)COc1cccc2c1CC[C@](O)(COC(=O)N(c1ccccc1)c1ccccc1)C2 [test compound, [[(2R)-5-(carboxymethoxy)-2-hydroxy-1,2,3,4-tetrahydronaphth-2-yl]methyl]N,N-diphenylcarbamate]
0.01% and 0.1% solutions
  early expansion of wound area: not observed
  overall conclusion on wound healing: wound healing-promoting action
0.01% solution
  wound area reduction: 90%
  day from which wound area differs significantly (p<0.05) from the vehicle control group: ≥ 7 days
0.1% solution
  wound area reduction: 93%
  day from which wound area differs significantly (p<0.05) from the vehicle control group: ≥ 4 days
